Measured values as given in ChEMBL document CHEMBL1129146, “Pentamidine congeners. 4. DNA binding affinity and anti-Pneumocystis carinii activity of butamidine analogues” (1996).

Assays:
[1] = tested on: Pneumocystis carinii; assay: Compound was tested for anti-P. carinii activity in vitro.; format: functional
[2] = Delta Tm (thermal denaturation) in sonicated poly(dA).poly(dT) homopolymer
[3] = tested on: Nucleic Acid; assay: Delta Tm (thermal denaturation) in sonicated calf thymus DNA; format: nucleic-acid assay; design: unit not given here; conditions: Bos taurus

C(=C\COc1ccc(C2=NCCN2)cc1)/COc1ccc(C2=NCCN2)cc1
Activity [1]: 42 µM
ΔTm [2]: 20.8
ΔTm [3]: 7.9

COc1cc(Cc2cnc(N)nc2N)cc(OC)c1OC.Cc1cc(NS(=O)(=O)c2ccc(N)cc2)no1 [CO-TRIMOXAZOLE]
Activity [1]: 17 µM

N=C(N)c1ccc(OCCCCCOc2ccc(C(=N)N)cc2)cc1 [PENTAMIDINE]
Activity [1]: 27 µM
ΔTm [2]: 22.9
ΔTm [3]: 10

N=C(N)c1ccc(OC/C=C/COc2ccc(C(=N)N)cc2)cc1
Activity [1]: 19 µM
ΔTm [2]: 23.3
ΔTm [3]: 7.7

N=C(N)c1ccc(OC/C=C\COc2ccc(C(=N)N)cc2)cc1
Activity [1]: 9 µM
ΔTm [2]: 31.5
ΔTm [3]: 11

C(=C/COc1ccc(C2=NCCN2)cc1)/COc1ccc(C2=NCCN2)cc1
Activity [1]: 25 µM
ΔTm [2]: 28.9
ΔTm [3]: 9.3

N=C(N)c1ccc(OCCCCOc2ccc(C(=N)N)cc2)cc1
Activity [1]: 39 µM
ΔTm [2]: 20.4
ΔTm [3]: 8.3

N=C(N)c1ccc(OC[C@@H](O)[C@@H](O)COc2ccc(C(=N)N)cc2)cc1
Activity [1]: 78 µM
